Laboratory results taken from ChEMBL document CHEMBL4665681, “On the Promise of Photopharmacology Using Photoswitches: A Medicinal Chemist's Perspective” (J Med Chem, 2020).
In brackets after ≈: the same amount, converted by molar mass.

What was measured:
[1] = target: Histone deacetylase 2 (Homo sapiens, UniProt Q92769); assay: Light-dependent inhibition of recombinant full length human HDAC2 expressed in baculovirus infected Sf9 insect cells preincubated for 1 hr in presence of LED light irradiation followed by substrate addition and measured for 30 mins by fluorescence method
[2] = Thermal relaxation half life in PBS buffer; type: physicochemical
[3] = tested on: Escherichia coli; assay: Antibacterial activity against Quinolone-sensitive Escherichia coli CS1562 (tolC6:tn10) using irradiated compound measured every 10 min for 12 hrs by broth dilution method; type: functional; conditions: light or radiation study
[4] = Half life of compound in water at 21x10^-6 M; type: physicochemical; conditions: dose 21 10^-6M
[5] = tested on: Escherichia coli; assay: Antibacterial activity against Quinolone-sensitive Escherichia coli CS1562 (tolC6:tn10) measured every 10 min for 12 hrs by broth dilution method; type: functional
[6] = Half life in Dutch Belted rabbit retina at 30 uM, IVT measured after 24 to 336 hrs by LC-MS/MS analysis; type: ADME, tissue-based, Oryctolagus cuniculus; conditions: topical or ocular, time 24-336 hrs

Histone deacetylase 2, sequence (Q92769 whole entry): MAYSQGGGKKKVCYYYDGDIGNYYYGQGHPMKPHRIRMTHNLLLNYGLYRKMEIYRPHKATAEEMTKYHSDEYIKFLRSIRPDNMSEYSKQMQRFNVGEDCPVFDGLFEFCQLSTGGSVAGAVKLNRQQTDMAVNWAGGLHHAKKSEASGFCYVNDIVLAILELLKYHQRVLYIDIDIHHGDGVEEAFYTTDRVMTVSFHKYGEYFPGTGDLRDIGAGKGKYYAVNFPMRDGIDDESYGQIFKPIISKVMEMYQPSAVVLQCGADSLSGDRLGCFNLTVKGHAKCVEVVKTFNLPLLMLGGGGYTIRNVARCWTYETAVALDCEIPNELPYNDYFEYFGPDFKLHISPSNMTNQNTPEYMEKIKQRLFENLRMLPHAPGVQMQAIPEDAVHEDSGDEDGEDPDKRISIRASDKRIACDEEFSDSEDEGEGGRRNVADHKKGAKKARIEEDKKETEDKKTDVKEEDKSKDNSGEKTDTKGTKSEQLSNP

CN(C)c1ccc(/N=N\c2ccc(C(=O)Nc3cc(-c4cccs4)ccc3O)cc2)cc1
IC50 [1]: < 100 nM | t1/2 [2]: 56 microsec

CCn1cc(C(=O)O)c(=O)c2ccc(/N=N\c3ccc(OC)c(C)c3)cc21
MIC [3]: 16 µg/mL (≈ 43.8 µM) | half-life at 21 µM [4]: 0.0833 days | MIC [5]: ≥ 64 µg/mL

CCN(Cc1ccccc1)c1ccc(/N=N/c2ccc(NC(=O)C[N+](CC)(CC)CC)cc2)cc1 [KIO-301]
half-life at 30 µM [6]: 24 days
